Data set [1] deals with T1, Steryl-sulfatase (Homo sapiens) (UniProt P08842).
T1 sequence (whole entry): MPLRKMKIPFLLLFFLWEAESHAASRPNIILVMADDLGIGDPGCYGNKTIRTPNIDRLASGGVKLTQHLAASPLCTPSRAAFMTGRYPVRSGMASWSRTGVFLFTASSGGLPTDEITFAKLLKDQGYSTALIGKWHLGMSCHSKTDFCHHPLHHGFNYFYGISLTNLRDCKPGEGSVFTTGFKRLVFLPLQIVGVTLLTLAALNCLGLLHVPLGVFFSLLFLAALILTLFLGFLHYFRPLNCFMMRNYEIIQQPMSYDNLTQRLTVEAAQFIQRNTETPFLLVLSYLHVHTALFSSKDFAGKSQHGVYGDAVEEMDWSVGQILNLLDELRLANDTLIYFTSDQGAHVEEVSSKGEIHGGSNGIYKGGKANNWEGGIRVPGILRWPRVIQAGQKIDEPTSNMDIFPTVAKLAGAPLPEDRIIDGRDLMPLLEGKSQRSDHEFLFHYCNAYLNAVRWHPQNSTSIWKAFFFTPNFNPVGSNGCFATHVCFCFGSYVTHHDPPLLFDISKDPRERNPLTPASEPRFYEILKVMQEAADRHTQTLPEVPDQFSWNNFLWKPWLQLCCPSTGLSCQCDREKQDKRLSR
Kind of data set: Inhibitory potency against recombinant human steroid sulfatase relative to compound 3 = 1.

Data set [2] deals with T1, Steryl-sulfatase (Homo sapiens). Kind of data set: kcat value was determined.
Data set [3] shares this target.
Compound in data set [4]: Cc1cc(=O)oc2cc(OS(N)(=O)=O)ccc12
The experiment in a line: (§1) Tested for inhibitory potency against recombinant human steroid sulfatase.

Compound in data set [5]: C[C@]12CC[C@@H]3c4ccc(OS(N)(=O)=O)cc4CC[C@H]3[C@@H]1CCC2=O
Described as §1.

Compound in data set [6]: O=c1oc2cc(OS(=O)(=O)O)ccc2c2ccccc12
The description is as §1.

Some results are limits rather than exact numbers.

Take `NS(=O)(=O)Oc1ccc2cc(-c3nc4ccccc4s3)c(=O)oc2c1`: the rIC50 in data set [1] was more than 250.
Consider `Cc1c(-c2ccccc2)c(=O)oc2ccc(OS(N)(=O)=O)cc12`, for which the rIC50 in data set [1] is more than 250.
In the case of `NS(=O)(=O)Oc1ccc2c(c1)oc(=O)c1c3ccc(O)cc3oc21`, in data set [1], the rIC50 came out at 3.5.
For the molecule `O=c1oc2cc(OS(=O)(=O)O)ccc2c2ccccc12`, the k cat in data set [2] is 0.24 s⁻¹.
`C[C@]12CC[C@@H]3c4ccc(OS(N)(=O)=O)cc4CC[C@H]3[C@@H]1CCC2=O` gave a rIC50 in data set [3] of 1.
On to `NS(=O)(=O)Oc1ccc2c(c1)oc1c3ccccc3oc(=O)c21`, for which, in data set [1], the rIC50 was more than 160.
Take `Cc1c(-c2ccccc2)c(=O)oc2cc(OS(N)(=O)=O)ccc12`: the rIC50 in data set [1] was 11.
For `Cc1cc(=O)oc2cc(OS(N)(=O)=O)ccc12`, the rIC50 in data set [1] stood at 30.
For the molecule `NS(=O)(=O)Oc1ccc2c(c1)oc(=O)c1ccccc12`, the rIC50 in data set [1] amounted to 3.
`NS(=O)(=O)Oc1ccc2cc(-c3ccccc3)c(=O)oc2c1`: the rIC50 in data set [1] was 48.
For `NS(=O)(=O)Oc1ccc2c(c1)oc(=O)c1c3ccccc3oc21`, the rIC50 in data set [1] amounted to 5.

B1: Steryl-sulfatase (Homo sapiens), P08842 (protein)
chain: MPLRKMKIPFLLLFFLWEAESHAASRPNIILVMADDLGIGDPGCYGNKTIRTPNIDRLASGGVKLTQHLAASPLCTPSRAAFMTGRYPVRSGMASWSRTGVFLFTASSGGLPTDEITFAKLLKDQGYSTALIGKWHLGMSCHSKTDFCHHPLHHGFNYFYGISLTNLRDCKPGEGSVFTTGFKRLVFLPLQIVGVTLLTLAALNCLGLLHVPLGVFFSLLFLAALILTLFLGFLHYFRPLNCFMMRNYEIIQQPMSYDNLTQRLTVEAAQFIQRNTETPFLLVLSYLHVHTALFSSKDFAGKSQHGVYGDAVEEMDWSVGQILNLLDELRLANDTLIYFTSDQGAHVEEVSSKGEIHGGSNGIYKGGKANNWEGGIRVPGILRWPRVIQAGQKIDEPTSNMDIFPTVAKLAGAPLPEDRIIDGRDLMPLLEGKSQRSDHEFLFHYCNAYLNAVRWHPQNSTSIWKAFFFTPNFNPVGSNGCFATHVCFCFGSYVTHHDPPLLFDISKDPRERNPLTPASEPRFYEILKVMQEAADRHTQTLPEVPDQFSWNNFLWKPWLQLCCPSTGLSCQCDREKQDKRLSR
One may read the Km as the concentration of substrate that gives half-maximal velocity. Take B1: the Km turned out to be 275 µM in data set [4], 95 µM in data set [5] and 22.5 µM in data set [6].

(Values after ChEMBL document CHEMBL1133359, “New fluorogenic substrate for the first continuous steroid sulfatase assay” (Bioorg Med Chem Lett, 2000).)
